Test results published in US20100075919A1, “COMPOSITIONS COMPRISING ALKYLDIMONIUM HYDROXYPROPYL ALKYLGLUCOSIDES” (priority 2008, published 2010).

Assays:
[1] = test system: three bacterium and two fungal strains; test: Testing of commercially available alkyldimonium hydroxypropyl alkylglucosides for biocidal efficacy in aqueous buffered borate solution; format: cell-based
[2] = test system: A. Niger; test: Preservative efficacy response study against A. Niger in borate-buffered solution; format: cell-based; settings: S-1218 in the solutions with or without PHMB
Source text: A “preservative-effective amount” is defined as a sufficient amount of alkyldimonium hydroxypropyl alkylglucoside of general formula I or general formula II in the formulation to reduce the cell population by two log orders after 7 days of the five following microorganisms, Staphylococcus aureus, Pseudomonas aeruginosa, Eschrechia coli, Candida albicans and Aspergillus niger, or that which will prevent the growth of fungal bioburden by ±0.5 log.
Data obtained from a preservative efficacy response study of S-1218 with or without the stated concentrations of PHMB in borate-buffered solution containing 0.85 wt. % sodium borate, 0.06 wt. % boric acid and 0.26 wt. % sodium chloride is provided in Tables 3A and 3B. The study also included a response against S. Aureus, P. Aeruginosa, E. Coli, and C. Albicans.
Data obtained from a preservative efficacy response study of select alkyldimonium hydroxypropyl alkylglucosides of general formula I or general formula II in borate-buffered solution containing 0.85 wt. % sodium borate, 0.06 wt. % boric acid and 0.26 wt. % sodium chloride is provided in Table 4. Example 9 includes 0.2 wt. % S-1218; Example 10 includes 0.2 wt. % S-1010P; Example 11 includes 0.2 wt. % L-1210P; and Example 12 includes 0.2 wt. % S-1010. The study also included a response against S. Aureus, P. Aeruginosa, E. Coli, and C. Albicans.

Row | Substance | biocidal efficacy (in words) [1] | biocidal control of A. Niger (in words) [2]
1 | stearyl dimonium hydropropyl laurylglucoside | relatively high increase in biocidal efficacy | –
2 | stearyldimonium hydropropyl decylglucoside | relatively high increase in biocidal efficacy | –
3 | stearyldimonium hydroxypropyl laurylglucosides chloride [Example S-1218] | – | significant biocidal control
